Assay results from ChEMBL document CHEMBL1201862, “PubChem BioAssay data set” (2004).
Active and inactive are the calls of the source.

Experiments:
[1] = target: Serine/threonine-protein kinase PLK4 (Homo sapiens, UniProt O00444); type: functional;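 note: PLK4 measured as one member of a kinome-wide kinase profiling panel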
[2] = target: Calcium/calmodulin-dependent protein kinase type II subunit gamma (Homo sapiens, UniProt Q13555); type: functional
[3] = target: Serine/threonine-protein kinase pim-1 (Homo sapiens, UniProt P11309); type: functional
[4] = target: MAP kinase-activated protein kinase 5 (Homo sapiens, UniProt Q8IW41); type: functional;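 note: measured as one member of a kinome panel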
Chain of MAP kinase-activated protein kinase 5 (Q8IW41 whole entry): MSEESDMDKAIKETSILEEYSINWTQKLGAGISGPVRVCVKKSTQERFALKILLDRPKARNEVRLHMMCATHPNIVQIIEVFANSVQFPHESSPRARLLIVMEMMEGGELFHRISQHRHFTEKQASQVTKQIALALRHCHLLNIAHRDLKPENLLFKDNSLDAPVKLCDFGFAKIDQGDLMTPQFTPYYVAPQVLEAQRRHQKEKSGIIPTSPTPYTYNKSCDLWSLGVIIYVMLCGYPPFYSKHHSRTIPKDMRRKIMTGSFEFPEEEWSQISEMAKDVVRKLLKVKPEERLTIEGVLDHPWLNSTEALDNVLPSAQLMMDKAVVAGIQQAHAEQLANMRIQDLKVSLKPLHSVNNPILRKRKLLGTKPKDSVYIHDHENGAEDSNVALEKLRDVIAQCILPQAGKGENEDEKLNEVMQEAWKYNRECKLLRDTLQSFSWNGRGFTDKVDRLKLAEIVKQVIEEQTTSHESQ

[5] = target: Cell division cycle 7-related protein kinase (Homo sapiens, UniProt O00311); type: functional;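 note: value obtained from a kinome-wide kinase panel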
Chain of Cell division cycle 7-related protein kinase (O00311 whole entry): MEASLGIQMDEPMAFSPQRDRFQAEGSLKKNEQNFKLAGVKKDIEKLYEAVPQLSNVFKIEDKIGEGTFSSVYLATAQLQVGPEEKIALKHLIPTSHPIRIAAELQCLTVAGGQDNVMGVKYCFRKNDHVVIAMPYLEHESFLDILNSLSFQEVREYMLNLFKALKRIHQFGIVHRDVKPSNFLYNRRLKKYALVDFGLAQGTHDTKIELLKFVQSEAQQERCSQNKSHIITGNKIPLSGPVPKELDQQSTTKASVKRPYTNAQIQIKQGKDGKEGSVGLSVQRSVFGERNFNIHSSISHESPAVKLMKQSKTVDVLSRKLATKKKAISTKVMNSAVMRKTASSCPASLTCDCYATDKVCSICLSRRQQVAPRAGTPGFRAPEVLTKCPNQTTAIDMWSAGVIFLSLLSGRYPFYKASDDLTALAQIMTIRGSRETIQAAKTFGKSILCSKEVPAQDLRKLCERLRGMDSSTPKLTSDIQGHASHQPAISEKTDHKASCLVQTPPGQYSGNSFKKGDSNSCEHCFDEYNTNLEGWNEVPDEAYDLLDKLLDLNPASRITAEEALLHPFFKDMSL

[6] = target: Mast/stem cell growth factor receptor Kit (Homo sapiens, UniProt P10721); type: functional;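 note: KIT entry within a kinase panel assay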
[7] = target: Calcium/calmodulin-dependent protein kinase type II subunit delta (Homo sapiens, UniProt Q13557); type: functional
[8] = target: Tyrosine-protein kinase JAK3 (Homo sapiens, UniProt P52333); type: functional
Chain of Tyrosine-protein kinase JAK3 (P52333 whole entry): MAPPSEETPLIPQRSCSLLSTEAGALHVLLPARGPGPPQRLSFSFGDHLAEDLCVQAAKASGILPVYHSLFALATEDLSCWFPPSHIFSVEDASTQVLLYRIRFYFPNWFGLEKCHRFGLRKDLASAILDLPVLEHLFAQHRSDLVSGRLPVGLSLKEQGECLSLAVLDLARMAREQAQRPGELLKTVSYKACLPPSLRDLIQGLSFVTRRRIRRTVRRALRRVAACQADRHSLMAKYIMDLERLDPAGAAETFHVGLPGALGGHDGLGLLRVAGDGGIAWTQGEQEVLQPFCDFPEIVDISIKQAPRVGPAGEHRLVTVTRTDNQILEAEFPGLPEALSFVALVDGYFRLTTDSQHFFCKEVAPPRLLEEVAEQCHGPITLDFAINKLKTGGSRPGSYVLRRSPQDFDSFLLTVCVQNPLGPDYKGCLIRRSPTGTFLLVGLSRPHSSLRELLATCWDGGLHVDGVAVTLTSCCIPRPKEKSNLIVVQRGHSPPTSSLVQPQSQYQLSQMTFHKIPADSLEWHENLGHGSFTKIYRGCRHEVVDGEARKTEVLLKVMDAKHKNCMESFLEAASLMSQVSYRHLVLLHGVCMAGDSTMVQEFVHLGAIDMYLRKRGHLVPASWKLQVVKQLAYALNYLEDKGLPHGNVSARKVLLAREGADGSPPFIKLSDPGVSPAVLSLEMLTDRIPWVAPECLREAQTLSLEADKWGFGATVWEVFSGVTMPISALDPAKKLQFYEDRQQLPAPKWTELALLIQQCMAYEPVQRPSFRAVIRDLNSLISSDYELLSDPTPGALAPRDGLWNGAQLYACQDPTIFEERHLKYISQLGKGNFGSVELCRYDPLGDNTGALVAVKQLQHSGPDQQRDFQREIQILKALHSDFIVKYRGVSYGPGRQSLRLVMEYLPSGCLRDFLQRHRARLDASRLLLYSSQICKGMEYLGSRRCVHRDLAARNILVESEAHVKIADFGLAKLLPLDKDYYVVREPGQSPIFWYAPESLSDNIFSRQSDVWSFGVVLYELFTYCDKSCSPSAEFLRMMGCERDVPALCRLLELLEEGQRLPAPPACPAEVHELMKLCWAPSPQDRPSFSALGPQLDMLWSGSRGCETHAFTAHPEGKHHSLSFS

[9] = target: MAP kinase-activated protein kinase 3 (Homo sapiens, UniProt Q16644); type: functional;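 note: value comes from a kinome-wide profiling panel in which MAPKAPK3 is one of the panel members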
[10] = target: Interleukin-1 receptor-associated kinase 4 (Homo sapiens, UniProt Q9NWZ3); type: functional
Chain of Interleukin-1 receptor-associated kinase 4 (Q9NWZ3 whole entry): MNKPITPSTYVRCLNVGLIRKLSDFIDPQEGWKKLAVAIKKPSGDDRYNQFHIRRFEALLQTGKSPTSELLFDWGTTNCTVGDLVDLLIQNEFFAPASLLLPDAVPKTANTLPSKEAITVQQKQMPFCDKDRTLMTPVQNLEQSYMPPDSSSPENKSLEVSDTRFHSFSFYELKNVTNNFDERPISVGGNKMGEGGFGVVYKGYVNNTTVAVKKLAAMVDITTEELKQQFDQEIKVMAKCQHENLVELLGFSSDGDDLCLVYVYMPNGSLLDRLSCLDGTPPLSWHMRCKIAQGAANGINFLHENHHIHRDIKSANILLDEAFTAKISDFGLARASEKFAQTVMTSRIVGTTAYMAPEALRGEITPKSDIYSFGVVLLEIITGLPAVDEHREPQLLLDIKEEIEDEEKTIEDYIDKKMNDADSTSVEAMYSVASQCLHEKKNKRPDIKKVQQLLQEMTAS

[11] = target: Vascular endothelial growth factor receptor 3 (Homo sapiens, UniProt P35916); type: functional;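 note: value from a kinome-wide profiling panel, with FLT4 as the panel member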
[12] = target: Cyclin-dependent kinase 19 (Homo sapiens, UniProt Q9BWU1); assay: Navigating the Kinome. Panel member name: CDC2L6; type: functional
[13] = target: Rho-associated protein kinase 1 (Homo sapiens, UniProt Q13464); type: functional;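 note: measured within a broad kinome-wide panel profiling many kinases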
[14] = target: Glycogen synthase kinase-3 beta (Homo sapiens, UniProt P49841); type: functional;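 note: value comes from a broad kinome profiling panel, with GSK3B as the panel member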
Chain of Glycogen synthase kinase-3 beta (P49841 whole entry): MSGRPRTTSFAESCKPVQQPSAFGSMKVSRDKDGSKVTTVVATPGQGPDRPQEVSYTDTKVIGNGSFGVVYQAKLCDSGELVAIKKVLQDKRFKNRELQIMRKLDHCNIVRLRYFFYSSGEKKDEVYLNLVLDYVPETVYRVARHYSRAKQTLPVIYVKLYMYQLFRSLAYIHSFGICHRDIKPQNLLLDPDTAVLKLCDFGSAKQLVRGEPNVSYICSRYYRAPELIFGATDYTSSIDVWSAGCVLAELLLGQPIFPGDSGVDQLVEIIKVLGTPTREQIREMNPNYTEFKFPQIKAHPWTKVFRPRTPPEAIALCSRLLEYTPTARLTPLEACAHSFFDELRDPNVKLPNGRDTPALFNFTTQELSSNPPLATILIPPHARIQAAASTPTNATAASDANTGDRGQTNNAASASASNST

[15] = target: Inhibitor of nuclear factor kappa-B kinase subunit beta (Homo sapiens, UniProt O14920); type: functional
Chain of Inhibitor of nuclear factor kappa-B kinase subunit beta (O14920 whole entry): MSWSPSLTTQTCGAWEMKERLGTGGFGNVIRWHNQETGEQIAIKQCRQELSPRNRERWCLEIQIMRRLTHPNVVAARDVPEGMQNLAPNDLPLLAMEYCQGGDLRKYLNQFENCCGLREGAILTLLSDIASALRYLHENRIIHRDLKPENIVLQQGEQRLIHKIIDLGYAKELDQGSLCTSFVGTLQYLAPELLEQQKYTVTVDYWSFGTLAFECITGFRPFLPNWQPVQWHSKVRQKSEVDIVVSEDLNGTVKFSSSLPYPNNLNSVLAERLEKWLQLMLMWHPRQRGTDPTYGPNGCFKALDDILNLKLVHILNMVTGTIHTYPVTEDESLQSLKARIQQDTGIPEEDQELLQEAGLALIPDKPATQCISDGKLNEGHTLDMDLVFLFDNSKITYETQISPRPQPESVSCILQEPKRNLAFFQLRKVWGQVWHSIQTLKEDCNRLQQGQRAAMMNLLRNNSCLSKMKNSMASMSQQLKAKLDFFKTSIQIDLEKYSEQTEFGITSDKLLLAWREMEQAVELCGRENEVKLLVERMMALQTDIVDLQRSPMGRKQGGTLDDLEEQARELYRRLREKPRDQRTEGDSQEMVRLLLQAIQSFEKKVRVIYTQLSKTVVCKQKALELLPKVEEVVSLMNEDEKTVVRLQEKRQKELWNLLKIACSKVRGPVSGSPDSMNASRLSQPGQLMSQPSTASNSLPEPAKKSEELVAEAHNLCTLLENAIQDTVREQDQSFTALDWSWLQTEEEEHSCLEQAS

[16] = target: T1, Tyrosine-protein phosphatase non-receptor type 7 (Homo sapiens, UniProt P35236); type: functional
T1 sequence (P35236 whole entry): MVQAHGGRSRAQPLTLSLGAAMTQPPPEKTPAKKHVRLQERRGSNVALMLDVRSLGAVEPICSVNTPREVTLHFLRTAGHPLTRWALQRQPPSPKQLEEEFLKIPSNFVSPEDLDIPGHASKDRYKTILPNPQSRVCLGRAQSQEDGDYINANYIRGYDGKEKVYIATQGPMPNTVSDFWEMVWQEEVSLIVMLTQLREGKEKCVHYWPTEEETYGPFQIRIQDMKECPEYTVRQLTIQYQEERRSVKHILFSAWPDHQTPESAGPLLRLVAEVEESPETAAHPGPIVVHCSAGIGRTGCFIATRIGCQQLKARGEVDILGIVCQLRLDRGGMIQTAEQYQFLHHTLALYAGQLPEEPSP

[17] = target: T2, Mannose-6-phosphate isomerase (Homo sapiens, UniProt P34949); assay: human PMI inhibitors, high substrate, primary screen, biochemical, fluorescence intensity, high mannose 6-phosphate (AID 1220)
T2 sequence (P34949 whole entry): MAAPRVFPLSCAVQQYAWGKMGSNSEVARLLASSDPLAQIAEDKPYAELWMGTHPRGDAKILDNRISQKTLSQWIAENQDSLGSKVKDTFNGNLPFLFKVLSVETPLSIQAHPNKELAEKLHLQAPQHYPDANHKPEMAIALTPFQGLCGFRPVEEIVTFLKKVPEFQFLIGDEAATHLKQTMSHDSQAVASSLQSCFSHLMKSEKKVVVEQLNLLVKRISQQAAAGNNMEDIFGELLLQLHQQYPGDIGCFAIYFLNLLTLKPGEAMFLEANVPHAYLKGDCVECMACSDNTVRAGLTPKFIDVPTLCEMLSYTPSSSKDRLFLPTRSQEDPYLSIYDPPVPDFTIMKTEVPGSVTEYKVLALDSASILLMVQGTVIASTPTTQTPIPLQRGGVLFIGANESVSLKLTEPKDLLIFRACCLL

[18] = target: Dual specificity tyrosine-phosphorylation-regulated kinase 1A (Rattus norvegicus, UniProt Q63470); type: biochemical, Homo sapiens
Caspase-6 = target: T3, Caspase-6 (Homo sapiens, UniProt P55212); assay: human caspase-6 inhibitors, dose response, biochemical, VEID-R110 fluorescence, cherry-pick (AID 720632)
T3 sequence (P55212 whole entry): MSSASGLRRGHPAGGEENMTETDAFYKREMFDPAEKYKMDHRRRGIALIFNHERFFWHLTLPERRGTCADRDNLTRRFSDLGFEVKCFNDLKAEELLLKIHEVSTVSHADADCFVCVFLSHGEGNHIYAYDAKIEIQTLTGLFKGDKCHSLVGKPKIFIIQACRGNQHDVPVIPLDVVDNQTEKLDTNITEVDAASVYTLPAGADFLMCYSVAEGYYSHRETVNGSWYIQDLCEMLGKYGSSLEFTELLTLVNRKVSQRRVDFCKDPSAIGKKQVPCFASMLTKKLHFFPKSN

[19] = LGR2 antagonists, dose response, cell-based, HEK293, CRE-luciferase reporter, cherry pick, set 2 (AID 743343); type: functional;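 note: transfected cells were stimulated with diluted bursicon conditioned medium after compound addition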
[20] = MC4R antagonists, dose response, counter-screen for LGR2 antagonist project, cell-based, plate reader, cherry pick (AID 743444); type: functional;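 note: transfected HEK 293 cells stimulated with alpha-MSH peptide; potency of inhibitors of the alpha-MSH evoked signal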
[21] = target: 1-phosphatidylinositol 4,5-bisphosphate phosphodiesterase beta-3 (Homo sapiens, UniProt Q01970); assay: Fluorescence-based biochemical high throughput dose response assay to identify inhibitors of phospholipase C isozymes (PLC-B3).

Chain of Serine/threonine-protein kinase PLK4 (O00444 whole entry): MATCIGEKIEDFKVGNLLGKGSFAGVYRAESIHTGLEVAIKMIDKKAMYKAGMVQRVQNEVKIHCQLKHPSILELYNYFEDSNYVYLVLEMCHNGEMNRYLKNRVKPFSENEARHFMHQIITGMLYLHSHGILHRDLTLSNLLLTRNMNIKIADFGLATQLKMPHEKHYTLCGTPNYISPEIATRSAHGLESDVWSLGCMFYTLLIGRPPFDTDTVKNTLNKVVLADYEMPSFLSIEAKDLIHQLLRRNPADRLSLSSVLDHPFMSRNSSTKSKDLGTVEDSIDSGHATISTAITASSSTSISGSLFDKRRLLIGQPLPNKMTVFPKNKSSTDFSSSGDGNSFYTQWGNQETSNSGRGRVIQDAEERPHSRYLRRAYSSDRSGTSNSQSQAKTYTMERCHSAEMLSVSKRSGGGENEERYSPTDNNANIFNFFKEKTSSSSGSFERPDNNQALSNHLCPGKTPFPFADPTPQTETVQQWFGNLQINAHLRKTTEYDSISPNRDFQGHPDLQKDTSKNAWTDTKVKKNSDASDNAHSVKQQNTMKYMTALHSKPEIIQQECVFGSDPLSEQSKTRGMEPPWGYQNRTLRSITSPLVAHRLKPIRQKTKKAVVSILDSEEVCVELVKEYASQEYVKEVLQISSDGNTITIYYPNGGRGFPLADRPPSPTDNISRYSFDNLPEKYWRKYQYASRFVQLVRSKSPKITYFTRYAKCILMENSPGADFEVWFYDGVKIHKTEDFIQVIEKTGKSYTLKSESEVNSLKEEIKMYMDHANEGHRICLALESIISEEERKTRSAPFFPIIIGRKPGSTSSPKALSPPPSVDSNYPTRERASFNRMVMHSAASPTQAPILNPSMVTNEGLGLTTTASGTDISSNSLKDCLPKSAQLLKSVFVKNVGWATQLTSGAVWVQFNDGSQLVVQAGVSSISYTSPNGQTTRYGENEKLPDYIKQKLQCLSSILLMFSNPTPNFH

COc1cc2ncn(-c3cc(OCc4ccccc4C(F)(F)F)c(C(N)=O)s3)c2cc1OC [GW843682X]
Ki [1]: 0.2 µM (active) | Ki [2]: > 6.31 µM (inactive) | Ki [3]: > 10 µM (inactive) | Ki [4]: 0.0631 µM (active) | Ki [5]: > 1.26 µM (inactive) | Ki [6]: 0.126 µM (active) | Ki [7]: > 6.31 µM (inactive) | Ki [8]: 0.2 µM (active) | Ki [9]: > 10 µM (inactive) | Ki [10]: > 10 µM (inactive) | Ki [11]: 0.1 µM (active) | Ki [12]: > 100 µM (inactive) | Ki [13]: > 10 µM (inactive) | Ki [14]: 2 µM (active) | Ki [15]: > 3.16 µM (inactive)

CCCc1nc2c(=O)n(C)c(=O)nc-2n(C)n1
IC50 [16]: < 1.24 µM (active) | IC50 [17]: 13.2 µM (active) | AC50 [18]: 0.249 µM (active) | AC50 (Caspase-6): 0.0636 µM (active) | AC50 [19]: 5.47 µM (active) | AC50 [20]: 4.6 µM (active) | IC50 [21]: > 122 µM (inactive)
